{
  "source": "paper PMC12592502",
  "about": "“Unraveling the mechanisms behind the enhanced efficacy of β-lactam-based sideromycins” (Communications Biology, 2025)",
  "key": {"[1]": {"tested_on": "P. aeruginosa 2302 MexAB, MexCD, MexEF upregulated", "experiment": "MIC, efflux pump overexpressing strain", "assay_type": "cell-based, Pseudomonas aeruginosa", "conditions": "Pseudomonas aeruginosa", "outline": "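Broth microdilution MICs per CLSI guidelines, determined in MHBCA and in ID-MHBCA. β-Lactamase effect checked by adding 3-aminophenylboronic acid to the inoculum at 200 μg/mL final concentration for P. aeruginosa.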"}, "[2]": {"tested_on": "P. aeruginosa ATCC 27853", "experiment": "MIC, broth microdilution (CLSI)", "assay_type": "cell-based, Pseudomonas aeruginosa", "conditions": "for MIC: Pseudomonas aeruginosa", "outline": "(§1)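 MICs were obtained in two media: untreated MHBCA, and an iron-deprived version made by Chelex treatment with divalent cations restored. The method was CLSI broth microdilution, with strains grown at 35 °C.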"}, "[3]": {"tested_on": "A. baumannii ATCC 19606", "experiment": "MIC, broth microdilution (CLSI)", "assay_type": "cell-based, Acinetobacter baumannii", "conditions": "for MIC: Acinetobacter baumannii", "outline": "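CLSI microdilution MIC; media: MHBCA (iron-sufficient) vs ID-MHBCA (Chelex 6 h RT, Ca/Mg/Zn 22/12/1 μg/ml, pH 7.3). Final inhibitor: clavulanate 4 μg/mL vs K. pneumoniae; 3-aminophenylboronic acid 200 μg/mL vs P. aeruginosa, A. baumannii.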"}, "[4]": {"tested_on": "K. pneumoniae ATCC 13883", "experiment": "MIC, broth microdilution (CLSI)", "assay_type": "cell-based, Klebsiella pneumoniae", "conditions": "for MIC with β-lactamase inhibitor (βI): + 4 μg/mL clavulanic acid", "experimental": "All bacterial strains (see description and sources Table S1) were stored at −80 °C, and grown on tryptone soya agar (TSA) at 35 °C. The iron-deprived (ID)-MHBCA (cation-adjusted Muller-Hinton Broth, Becton Dickinson, Mississauga, ON, Canada) medium was prepared as reported by refs. [21],[50]. Briefly, MHBCA was treated with 10% Chelex® 50-100 mesh (Sigma) and stirred for 6 h at room temperature. The resin was removed by filtration. Divalent Ca^2+ (CaCl2), Mg^2+ (MgCl2), and Zn^2+(ZnSO4), were then added in the iron-depleted medium at 22, 12, and 1 μg/ml respectively. Finally, the pH was adjusted to 7.3, and the medium was sterilized with a 0.2-μm filter. Regular MHBCA (i.e., not treated with Chelex®) was used to compare the inhibitory activity of conjugates in iron-sufficient conditions. The resin used for Chelex treatment was always fresh and had never been regenerated, ensuring consistent iron removal.\nMinimal inhibitory concentrations (MICs) were performed using a broth microdilution technique according to the Clinical and Laboratory Standards Institute (CLSI) guidelines. MICs were determined in MHBCA and in ID-MHBCA. To check the impact of β-lactamases, MICs in the presence of a β-lactamase inhibitor were also determined. The inhibitor was homogenized at 2X the final concentration and added to the bacterial inoculum just before distributing cells into the wells containing the drug dilutions. The final concentration of each inhibitor was 4 μg/mL for clavulanic acid (tested against K. pneumoniae) and 200 μg/mL for 3-aminophenylboronic acid (tested against P. aeruginosa and A. baumannii)."}, "[5]": {"tested_on": "E. coli ΔfepA", "experiment": "MIC, Keio mutant", "assay_type": "cell-based, Escherichia coli", "outline": "as §1"}, "[6]": {"tested_on": "E. coli ΔtonB", "experiment": "MIC, Keio mutant", "assay_type": "cell-based, Escherichia coli", "outline": "as §1"}, "[7]": {"tested_on": "E. coli ΔentE", "experiment": "MIC, Keio mutant", "assay_type": "cell-based, Escherichia coli", "conditions": "Escherichia coli", "outline": "as §1"}, "[8]": {"tested_on": "E. coli ΔfecA", "experiment": "MIC, Keio mutant", "assay_type": "cell-based, Escherichia coli", "conditions": "Escherichia coli", "outline": "as §1"}, "[9]": {"molecular_target": "T1, purified PBP3 of P. aeruginosa (PaPBP3) (Pseudomonas aeruginosa, UniProt G3XD46)", "T1 construct": "(residues 53 to 579) from P. aeruginosa ATCC 27853 (PaPBP3); His6 (C); made in house; host or cells: E. coli BL21 DE3", "T1 sequence (G3XD46 53-579)": "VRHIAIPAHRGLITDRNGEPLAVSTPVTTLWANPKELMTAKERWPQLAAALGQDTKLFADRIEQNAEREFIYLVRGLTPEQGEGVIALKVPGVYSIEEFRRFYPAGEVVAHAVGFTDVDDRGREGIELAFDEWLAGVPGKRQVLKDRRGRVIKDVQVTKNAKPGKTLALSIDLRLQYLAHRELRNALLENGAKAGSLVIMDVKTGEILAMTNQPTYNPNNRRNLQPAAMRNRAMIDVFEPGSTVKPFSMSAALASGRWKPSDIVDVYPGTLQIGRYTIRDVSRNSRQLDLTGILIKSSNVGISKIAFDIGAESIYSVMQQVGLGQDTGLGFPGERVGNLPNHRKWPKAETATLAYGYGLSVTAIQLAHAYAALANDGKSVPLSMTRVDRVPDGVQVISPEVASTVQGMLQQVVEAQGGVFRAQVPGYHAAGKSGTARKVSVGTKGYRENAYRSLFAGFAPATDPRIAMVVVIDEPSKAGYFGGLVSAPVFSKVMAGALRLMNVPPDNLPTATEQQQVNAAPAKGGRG", "experiment": "biochemical", "assay_type": "binding", "experimental": "The PBP binding assay was done as described previously[36],[56],[57]. For each antibiotic concentration tested, a quantity of 25 to 40 μg of membrane preparation was used as the source of PBPs, depending on the species. For the purified PaPBP3, 150 ng was used in the assay. First, increasing concentrations of the test antibiotic was added to the membrane or purified PaPBP3 preparations and incubated for 10 min at 30 °C. The reporter molecule Bocillin FL was then added at 12.5 μM for the membrane PBPs preparations and at 500 nM for the pure PaPBP3 samples for an additional 20 min at 30 °C. All reactions were stopped with the addition of the Laemmli-loading buffer (Bio-Rad) containing fresh β-mercaptoethanol (Sigma). All reactions were then heated at 100°C for 3 min before migration on SDS-polyacrylamide discontinuous gel system (7.5% stacking and 10% separating). Control samples without Bocillin FL were also included to highlight autofluorescent proteins that are not PBPs.\nTo be able to visualize labeled PBPs after electrophoresis, gels were rinsed in water and fixed in a solution of 50% methanol and 7% acetic acid for 30 min. The fluorescent images of gels were obtained with the Typhoon FLA 9500 instrument (GE-Healthcare Bio-Sciences Inc., Baie-d’Urfé, QC, CA) using a 473 nm excitation wavelength. To obtain quantifiable data, the software Quantity One 1D analysis was used (version 4.6.6; Bio-Rad Laboratories, Richmond, CA). The volume (intensity × constant area) of each PBP was measured. […] All IC50 data were obtained from at least two independent PBP binding assays using two different sets of compound concentrations using a linear regression."}, "[10]": {"tested_on": "E. coli lptD4213", "experiment": "MIC, hyperpermeable mutant", "assay_type": "cell-based, Escherichia coli", "conditions": "Escherichia coli", "outline": "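Broth microdilution per CLSI in cation-adjusted Mueller-Hinton broth and in iron-depleted broth (Chelex-treated, Ca2+, Mg2+, Zn2+ restored at 22, 12, 1 μg/ml, pH 7.3). β-Lactamase inhibitors were added at final 4 μg/mL clavulanic acid (K. pneumoniae) or 200 μg/mL 3-aminophenylboronic acid (P. aeruginosa, A. baumannii).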"}, "[11]": {"conditions": "ID-MHBCA, 0 and 1 µg/mL supplemental iron (Table S2)"}, "[12]": {"conditions": "ID-MHBCA, 1 versus 0 µg/mL supplemental iron (peer review file table)"}},
  "note": "Where two headings read alike, the source gives them in different places. Marks after values point to notes of the source that are not given here.",
  "data": [
    {"compound": "CC1(C)SC2C(NC(=O)C(NC(=O)CN(CCCCNC(=O)c3cccc(O)c3O)C(=O)c3cccc(O)c3O)c3ccccc3)C(=O)N2C1C(=O)O", "note": "(stereo not shown) [BAMP, bis-catechol (azotochelin)-ampicillin]", "values": [
      {"measurement": "MIC", "setting": "[1]", "value": 0.4, "unit": "µM"},
      {"measurement": "potentiation of activity (MIC decrease) by PAβN", "setting": "[2]; 25 µg/mL PAβN", "value": 8, "unit": "fold"},
      {"measurement": "MIC ratio unconjugated β-lactam/conjugate", "setting": "[2]; ID-MHBCA", "value": ">2048"},
      {"measurement": "MIC ratio 0/1", "setting": "[2]; [11]", "value": 128},
      {"measurement": "MIC ratio 1/0", "setting": "[2]; [12]", "value": 128},
      {"measurement": "MIC ratio unconjugated β-lactam/conjugate", "setting": "[2]; MHBCA", "value": ">128"},
      {"measurement": "MIC in combination with PAβN", "setting": "[2]; MHBCA, + 25 µg/mL PAβN", "value": 0.2, "unit": "µM"},
      {"measurement": "MIC", "setting": "[2]; ATCC27853, ID-MHBCA (−), 0 µg/mL supplemental iron, read-out: MIC", "value": 0.1, "unit": "µM"},
      {"measurement": "MIC", "setting": "[2]; ATCC27853, ID-MHBCA + 0.1 µg/mL supplemental iron, read-out: MIC", "value": 0.8, "unit": "µM"},
      {"measurement": "MIC", "setting": "[2]; ATCC27853, ID-MHBCA + 1 µg/mL supplemental iron, read-out: MIC", "value": 13, "unit": "µM"},
      {"measurement": "MIC", "setting": "[2]; ATCC27853, ID-MHBCA, + 200 μg/mL APB, read-out: MIC with β-lactamase inhibitor (βI)", "value": 0.1, "unit": "µM"},
      {"measurement": "MIC", "setting": "[2]; ATCC27853, MHBCA (+), no inhibitor, read-out: MIC", "value": 1.6, "unit": "µM"},
      {"measurement": "MIC", "setting": "[2]; ATCC27853, MHBCA, + 200 μg/mL 3-aminophenylboronic acid (APB), read-out: MIC with β-lactamase inhibitor (βI)", "value": 1.6, "unit": "µM"},
      {"measurement": "MIC", "setting": "[3]; ATCC19606, ID-MHBCA (−), 0 µg/mL supplemental iron, read-out: MIC", "value": 0.2, "unit": "µM"},
      {"measurement": "MIC", "setting": "[3]; ATCC19606, ID-MHBCA + 0.1 µg/mL supplemental iron, read-out: MIC", "value": 0.4, "unit": "µM"},
      {"measurement": "MIC", "setting": "[3]; ATCC19606, ID-MHBCA + 1 µg/mL supplemental iron, read-out: MIC", "value": 1.6, "unit": "µM"},
      {"measurement": "MIC", "setting": "[3]; ATCC19606, ID-MHBCA, + 200 μg/mL APB, read-out: MIC with β-lactamase inhibitor (βI)", "value": 0.1, "unit": "µM"},
      {"measurement": "MIC", "setting": "[3]; ATCC19606, MHBCA (+), no inhibitor, read-out: MIC", "value": 0.4, "unit": "µM"},
      {"measurement": "MIC", "setting": "[3]; ATCC19606, MHBCA, + 200 μg/mL APB, read-out: MIC with β-lactamase inhibitor (βI)", "value": 0.2, "unit": "µM"},
      {"measurement": "MIC ratio unconjugated β-lactam/conjugate", "setting": "[3]; ID-MHBCA", "value": ">1024"},
      {"measurement": "MIC ratio 0/1", "setting": "[3]; [11]", "value": 8},
      {"measurement": "MIC ratio 1/0", "setting": "[3]; [12]", "value": 8},
      {"measurement": "MIC ratio unconjugated β-lactam/conjugate", "setting": "[3]; MHBCA", "value": ">512"},
      {"measurement": "MIC in combination with PAβN", "setting": "[3]; MHBCA, + 25 µg/mL PAβN", "value": "> 6.3", "unit": "µM"},
      {"measurement": "MIC ratio unconjugated β-lactam/conjugate", "setting": "[4]; ID-MHBCA", "value": "No activity"},
      {"measurement": "MIC", "setting": "[4]; ID-MHBCA (−), 0 µg/mL supplemental iron", "value": ">200", "unit": "µM"},
      {"measurement": "MIC with β-lactamase inhibitor (βI)", "setting": "[4]; ID-MHBCA", "value": 0.4, "unit": "µM"},
      {"measurement": "MIC", "setting": "[4]; Klebsiella pneumoniae, ATCC13883, ID-MHBCA (−), 0 µg/mL supplemental iron", "value": "> 200", "unit": "µM"},
      {"measurement": "MIC", "setting": "[4]; Klebsiella pneumoniae, ATCC13883, ID-MHBCA + 1 µg/mL supplemental iron", "value": "> 200", "unit": "µM"},
      {"measurement": "MIC", "setting": "[4]; Klebsiella pneumoniae, ATCC13883, MHBCA (+)", "value": "> 200", "unit": "µM"},
      {"measurement": "MIC ratio unconjugated β-lactam/conjugate", "setting": "[4]; MHBCA", "value": "No activity"},
      {"measurement": "MIC", "setting": "[4]; MHBCA (+)", "value": ">200", "unit": "µM"},
      {"measurement": "MIC with β-lactamase inhibitor (βI)", "setting": "[4]; MHBCA", "value": 1.6, "unit": "µM"},
      {"measurement": "MIC", "setting": "[5]; Escherichia coli, ID-MHBCA", "value": 0.024, "unit": "µM"},
      {"measurement": "MIC", "setting": "[5]; Escherichia coli, MHBCA", "value": "0.1 to 0.4", "unit": "µM"},
      {"measurement": "MIC", "setting": "[5]; MHBCA", "value": 0.2, "unit": "µM"},
      {"measurement": "MIC", "setting": "[6]; Escherichia coli", "value": 50, "unit": "µM"},
      {"measurement": "MIC", "setting": "[6]; ΔtonB, MHBCA", "value": "50^c μM"},
      {"measurement": "MIC", "setting": "[7]; ID-MHBCA", "value": 0.05, "unit": "µM"},
      {"measurement": "MIC", "setting": "[7]; MHBCA", "value": 0.2, "unit": "µM"},
      {"measurement": "MIC", "setting": "[8]; ID-MHBCA", "value": 0.006, "unit": "µM"},
      {"measurement": "MIC", "setting": "[8]; MHBCA", "value": "≤ 0.003", "unit": "µM"},
      {"measurement": "IC50", "setting": "[9]; 150 ng PaPBP3, 500 nM Bocillin FL, n = 3, read-out: IC50 PaPBP3 purified", "value": "76 ± 31", "unit": "nM"},
      {"measurement": "IC50 ratio βL/SID-βL, PaPBP3 purified", "setting": "[9]; purified PaPBP3", "value": 0.97},
      {"measurement": "MIC", "setting": "[10]; LPTD4213, lptD4213, ID-MHBCA (−)", "value": 0.024, "unit": "µM"},
      {"measurement": "MIC", "setting": "[10]; LPTD4213, lptD4213, MHBCA (+)", "value": 0.05, "unit": "µM"}
    ]}
  ]
}
